Legend:
Mycobacterium leprae [1] = experiment: (§1) Inhibition of PGL1 synthesis in Mycobacterium leprae infected Swiss Webster mouse macrophages assessed as decrease in [U-14C]PA incorporation at 0.2 uM preincubated for 4 days post infection followed by [U-14C]PA addition and measured after 7 days by liquid scintillation counter analysis relative to control; format: functional
Mycobacterium leprae [2] = experiment: Anti-leprotic activity against rifampin-susceptible Mycobacterium leprae infected in BALB/c mouse assessed as ATP level in footpad at 6 mg/kg administered with food daily for 2 weeks by Shepard's kinetic method (reference value: 109%); format: functional
Mycobacterium leprae [3] = experiment: Anti-leprotic activity against rifampin-susceptible Mycobacterium leprae infected in BALB/c mouse assessed as ATP level in footpad at 6 mg/kg administered with food daily for 1 week by Shepard's kinetic method (reference value: 102%); format: functional
Mycobacterium leprae [4] = experiment: Anti-leprotic activity against rifampicin-susceptible Mycobacterium leprae subcultures at 4 weeks assessed as ATP level per 10^7 cells at 0.2 mg/L measured by bioluminescence assay (reference value: 425 +/- 64 pg); format: functional
Mycobacterium leprae [5] = experiment: Anti-leprotic activity against rifampin-susceptible Mycobacterium leprae infected in BALB/c mouse assessed as ATP level per 10^6 Mycobacterium leprae in footpad at 6 mg/kg administered with food daily for 8 weeks by Shepard's kinetic method (reference value: 26.1 +/- 3.7 pg); format: functional
Mycobacterium leprae [6] = experiment: Anti-leprotic activity against rifampicin-susceptible Mycobacterium leprae primary cultures at 4 weeks assessed as ATP level per 10^7 cells at 0.3 mg/L measured by bioluminescence assay (reference value: 332 +/- 46 pg); format: functional
Mycobacterium leprae [7] = experiment: Anti-leprotic activity against rifampin-susceptible Mycobacterium leprae infected in armadillo assessed as bacterial counts in footpad at 6 mg/kg administered with food daily for 16 weeks (reference value: 226%); format: functional
Mycobacterium leprae [8] = experiment: Anti-leprotic activity against rifampin-susceptible Mycobacterium leprae infected in BALB/c mouse assessed as ATP level in footpad at 6 mg/kg administered with food daily for 4 weeks by Shepard's kinetic method (reference value: 98%); format: functional
Mycobacterium leprae [9] = experiment: Anti-leprotic activity against rifampicin-susceptible Mycobacterium leprae primary cultures at 4 weeks assessed as ATP level per 10^7 cells at 0.1 mg/L measured by bioluminescence assay (reference value: 332 +/- 46 pg); format: functional
Mycobacterium leprae [10] = experiment: Anti-leprotic activity against rifampin-susceptible Mycobacterium leprae infected in armadillo assessed as bacterial counts in footpad at 6 mg/kg administered with food daily for 1 week (reference value: 110%); format: functional
Mycobacterium leprae [11] = experiment: Anti-leprotic activity against rifampicin-susceptible Mycobacterium leprae primary cultures at 4 weeks assessed as [3H]thymidine uptake per 5 times 10^7 cells at 0.3 mg/L incubated for 24 hrs (reference value: 1.05 +/- 0.16 pmol); format: functional
Mycobacterium leprae [12] = experiment: Anti-leprotic activity against rifampin-susceptible Mycobacterium leprae infected in armadillo assessed as bacterial counts in footpad at 6 mg/kg administered with food daily for 4 weeks (reference value: 141%); format: functional
Mycobacterium leprae [13] = experiment: Anti-leprotic activity against rifampicin-susceptible Mycobacterium leprae subcultures at 4 weeks assessed as [3H]thymidine uptake per 5 times 10^7 cells at 0.1 mg/L incubated for 24 hrs (reference value: 1.41 +/- 0.20 pmol); format: functional
[14] = Plasma concentration in rifampin-susceptible Mycobacterium leprae infected in BALB/c mouse at 6 mg/kg administered with food daily for 8 weeks by high-pressure liquid chromatography analysis; format: ADME, organism-based; conditions: po
Mycobacterium leprae [15] = experiment: Anti-leprotic activity against rifampin-susceptible Mycobacterium leprae infected in BALB/c mouse assessed as ATP level per 10^6 Mycobacterium leprae in footpad at 6 mg/kg administered with food daily for 16 weeks by Shepard's kinetic method (reference value: 27.9 +/- 3.60 pg); format: functional
Mycobacterium leprae [16] = experiment: Anti-leprotic activity against rifampicin-susceptible Mycobacterium leprae subcultures at 4 weeks assessed as [3H]thymidine uptake per 5 times 10^7 cells at 0.3 mg/L incubated for 24 hrs (reference value: 1.41 +/- 0.20 pmol); format: functional
Mycobacterium leprae [17] = experiment: Anti-leprotic activity against rifampicin-susceptible Mycobacterium leprae subcultures at 4 weeks assessed as [3H]thymidine uptake per 5 times 10^7 cells at 0.2 mg/L incubated for 24 hrs (reference value: 1.41 +/- 0.20 pmol); format: functional
[18] = Plasma concentration in rifampin-susceptible Mycobacterium leprae infected in BALB/c mouse at 6 mg/kg administered with food daily for 1 week by high-pressure liquid chromatography analysis; format: ADME, organism-based; conditions: po
Mycobacterium leprae [19] = experiment: Anti-leprotic activity against rifampin-susceptible Mycobacterium leprae infected in armadillo assessed as bacterial counts in footpad at 6 mg/kg administered with food daily for 12 weeks (reference value: 190%); format: functional
Mycobacterium leprae [20] = experiment: Anti-leprotic activity against rifampin-susceptible Mycobacterium leprae infected in armadillo assessed as bacterial counts in footpad at 6 mg/kg administered with food daily for 8 weeks (reference value: 162%); format: functional
Mycobacterium leprae [21] = experiment: Anti-leprotic activity against rifampicin-susceptible Mycobacterium leprae subcultures at 4 weeks assessed as ATP level per 10^7 cells at 0.3 mg/L measured by bioluminescence assay (reference value: 425 +/- 64 pg); format: functional
Mycobacterium leprae [22] = experiment: Anti-leprotic activity against rifampicin-susceptible Mycobacterium leprae primary cultures at 4 weeks assessed as [3H]thymidine uptake per 5 times 10^7 cells at 0.2 mg/L incubated for 24 hrs (reference value: 1.05 +/- 0.16 pmol); format: functional
[23] = Plasma concentration in rifampin-susceptible Mycobacterium leprae infected in BALB/c mouse at 6 mg/kg administered with food daily for 12 weeks by high-pressure liquid chromatography analysis; format: ADME, organism-based; conditions: po
Mycobacterium leprae [24] = experiment: as §1, with “2” for “0.2”; format: functional
[25] = Plasma concentration in rifampin-susceptible Mycobacterium leprae infected in BALB/c mouse at 6 mg/kg administered with food daily for 4 weeks by high-pressure liquid chromatography analysis; format: ADME, organism-based; conditions: po
Mycobacterium leprae [26] = experiment: Anti-leprotic activity against rifampicin-susceptible Mycobacterium leprae primary cultures at 4 weeks assessed as ATP level per 10^7 cells at 0.2 mg/L measured by bioluminescence assay (reference value: 332 +/- 46 pg); format: functional
Mycobacterium leprae [27] = experiment: Anti-leprotic activity against rifampicin-susceptible Mycobacterium leprae primary cultures at 4 weeks assessed as [3H]thymidine uptake per 5 times 10^7 cells at 0.1 mg/L incubated for 24 hrs (reference value: 1.05 +/- 0.16 pmol); format: functional
Mycobacterium leprae [28] = experiment: Anti-leprotic activity against rifampin-susceptible Mycobacterium leprae infected in BALB/c mouse assessed as ATP level per 10^6 Mycobacterium leprae in footpad at 6 mg/kg administered with food daily for 12 weeks by Shepard's kinetic method (reference value: 26.9 +/- 2.90 pg); format: functional
Mycobacterium leprae [29] = experiment: Anti-leprotic activity against rifampicin-susceptible Mycobacterium leprae subcultures at 4 weeks assessed as ATP level per 10^7 cells at 0.1 mg/L measured by bioluminescence assay (reference value: 425 +/- 64 pg); format: functional
Mycobacterium leprae [30] = experiment: Anti-leprotic activity against rifampin-susceptible Mycobacterium leprae infected in armadillo assessed as bacterial counts in footpad at 6 mg/kg administered with food daily for 2 weeks (reference value: 125%); format: functional
[31] = Plasma concentration in rifampin-susceptible Mycobacterium leprae infected in BALB/c mouse at 6 mg/kg administered with food daily for 2 weeks by high-pressure liquid chromatography analysis; format: ADME, organism-based; conditions: po
[32] = tested on: Mycobacterium tuberculosis; experiment: Antimycobacterial activity against Mycobacterium tuberculosis H37Rv infected in CF-1 mouse assessed as change in survival time at 6 mg/kg administrated daily for 14 days with food relative to control; format: functional
[33] = tested on: Mycobacterium tuberculosis; experiment: Antimycobacterial activity against Mycobacterium tuberculosis H37Rv infected in CF-1 mouse assessed as change in survival time at 2 mg/kg administrated daily for 14 days with food relative to control; format: functional
[34] = tested on: Mycobacterium tuberculosis; experiment: Antimycobacterial activity against Mycobacterium tuberculosis H37Rv infected in CF-1 mouse assessed as change in survival time at 850 mg/kg administrated daily for 14 days with food relative to control; format: functional
[35] = tested on: Mycobacterium tuberculosis; experiment: Antimycobacterial activity against Mycobacterium tuberculosis H37Rv infected in CF-1 mouse assessed as change in survival time at 4 mg/kg administrated daily for 14 days with food relative to control; format: functional
Mycobacterium leprae [36] = experiment: Antimicrobial activity against Mycobacterium leprae assessed as fractional inhibitory concentration index at 0.75 ug/ml in presence of 0.2 ug/ml rifampin measured at 4 weeks; format: functional
Mycobacterium leprae [37] = experiment: Antimicrobial activity against Mycobacterium leprae assessed as microbial growth at 0.375 ug/ml in presence of 0.05 ug/ml rifabutin measured at 4 weeks (reference value: 147 +/- 19.1%); format: functional
Mycobacterium leprae [38] = experiment: Antimicrobial activity against Mycobacterium leprae assessed as microbial growth at 0.75 ug/ml in presence of 0.1 ug/ml rifampin measured at 4 weeks (reference value: 147 +/- 19.1%); format: functional
Mycobacterium leprae [39] = experiment: Antimicrobial activity against Mycobacterium leprae assessed as microbial growth at 0.75 ug/ml in presence of 0.2 ug/ml rifampin measured at 4 weeks (reference value: 147 +/- 19.1%); format: functional
Mycobacterium leprae [40] = experiment: Antimicrobial activity against Mycobacterium leprae assessed as fractional inhibitory concentration index at 0.375 ug/ml in presence of 0.0125 ug/ml KRM-1648 measured at 4 weeks; format: functional
Mycobacterium leprae [41] = experiment: Antimicrobial activity against Mycobacterium leprae assessed as fractional inhibitory concentration index at 0.375 ug/ml in presence of 0.05 ug/ml rifabutin measured at 4 weeks; format: functional
Mycobacterium leprae [42] = experiment: Antimicrobial activity against Mycobacterium leprae assessed as microbial growth at 0.375 ug/ml in presence of 0.0125 ug/ml KRM-1648 measured at 4 weeks (reference value: 147 +/- 19.1%); format: functional
Mycobacterium leprae [43] = experiment: Antimicrobial activity against Mycobacterium leprae assessed as microbial growth at 0.375 ug/ml in presence of 0.025 ug/ml rifabutin measured at 4 weeks (reference value: 147 +/- 19.1%); format: functional
Mycobacterium leprae [44] = experiment: Antimicrobial activity against Mycobacterium leprae assessed as microbial growth at 0.375 ug/ml in presence of 0.0062 ug/ml KRM-1648 measured at 4 weeks (reference value: 147 +/- 19.1%); format: functional

For `CO[C@H]1/C=C/O[C@@]2(C)Oc3c(C)c(O)c4c(c3C2=O)C2=NC3(CCN(CC(C)C)CC3)NC2=C(NC(=O)/C(C)=C\C=C\[C@H](C)[C@H](O)[C@@H](C)[C@@H](O)[C@@H](C)[C@H](OC(C)=O)[C@@H]1C)C4=O` [RIFABUTIN], the inhibition at 0.2 µM (Mycobacterium leprae [1]) was 84%, the Activity (Mycobacterium leprae [2]) was 21% and the Activity (Mycobacterium leprae [3]) was 72%. It also gave an Activity (Mycobacterium leprae [4]) of 0 pg, an Activity (Mycobacterium leprae [5]) of 0.049 pg and an Activity (Mycobacterium leprae [6]) of 0 pg. The Activity (Mycobacterium leprae [7]) was 77%, the Activity (Mycobacterium leprae [8]) was 9% and the Activity (Mycobacterium leprae [9]) was 192 pg. The Activity (Mycobacterium leprae [10]) was 101%, the Activity (Mycobacterium leprae [11]) was 0 pmol and the Activity (Mycobacterium leprae [12]) was 94%. The Activity (Mycobacterium leprae [13]) was 0 pmol, the concentration at 1344 h [14] was 52 ng/mL and the Activity (Mycobacterium leprae [15]) was 0 pg. It also gave an Activity (Mycobacterium leprae [16]) of 0 pmol, an Activity (Mycobacterium leprae [17]) of 0.49 pmol and a concentration at 168 h [18] of 380 ng/mL. For the same molecule, the Activity (Mycobacterium leprae [19]) was 83%, the Activity (Mycobacterium leprae [20]) was 89% and the Activity (Mycobacterium leprae [21]) was 0 pg. The Activity (Mycobacterium leprae [22]) was 0 pmol, the concentration at 2016 h [23] was 90 ng/mL and the inhibition at 2 µM (Mycobacterium leprae [24]) was 96%. It also gave a concentration at 672 h [25] of 510 ng/mL, an Activity (Mycobacterium leprae [26]) of 0 pg and an Activity (Mycobacterium leprae [27]) of 0.65 pmol. For the same molecule, the Activity (Mycobacterium leprae [28]) was 0 pg, the Activity (Mycobacterium leprae [29]) was 127 pg and the Activity (Mycobacterium leprae [30]) was 98%. The concentration at 336 h [31] was 450 ng/mL.

With `Nc1ccc(C(=O)O)c(O)c1` [AMINOSALICYLIC ACID] the MST [32] was 52 days, the MST [33] was 17 days and the MST [34] was 25 days. For the same molecule, the MST [35] was 26 days.

With `CC1COc2c(N3CCN(C)CC3)c(F)cc3c(=O)c(C(=O)O)cn1c23` (centres undefined) [OFLOXACIN] the “fractional inhibitory concentration index (FICI)” value (Mycobacterium leprae [36]) was 1, the Activity (Mycobacterium leprae [37]) was 0% and the Activity (Mycobacterium leprae [38]) was 72%. The Activity (Mycobacterium leprae [39]) was 0%, the “fractional inhibitory concentration index (FICI)” value (Mycobacterium leprae [40]) was 0.5 and the “fractional inhibitory concentration index (FICI)” value (Mycobacterium leprae [41]) was 0.5. The Activity (Mycobacterium leprae [42]) was 0%, the Activity (Mycobacterium leprae [43]) was 121% and the Activity (Mycobacterium leprae [44]) was 124%.

From ChEMBL document CHEMBL4613212, “Insights of synthetic analogues of anti-leprosy agents” (Bioorg Med Chem, 2019)
